Assay [1] deals with CDK4 (Homo sapiens (Human), UniProt P11802). The experiment in a line: In vitro kinase inhibition, luminescence (ADP-Glo) with retinoblastoma substrate. It counts as biochemical. For orientation: ADP-Glo turns the ADP formed in a reaction into a luminescent signal.
Assay [2] has as its target CDK6 (Homo sapiens (Human), UniProt Q00534). In words: biochemical. It counts as biochemical.
The target in assay [3] is FMS kinase (Homo sapiens (Human), UniProt P07333). In words: LanthaScreen kinase assay (ATP, fluorescent-PolyGT substrate, TR-FRET). Format: biochemical. (In general: TR-FRET usually uses a lanthanide donor and a delayed reading to cut background.)
Chain of FMS kinase (P07333 20-972): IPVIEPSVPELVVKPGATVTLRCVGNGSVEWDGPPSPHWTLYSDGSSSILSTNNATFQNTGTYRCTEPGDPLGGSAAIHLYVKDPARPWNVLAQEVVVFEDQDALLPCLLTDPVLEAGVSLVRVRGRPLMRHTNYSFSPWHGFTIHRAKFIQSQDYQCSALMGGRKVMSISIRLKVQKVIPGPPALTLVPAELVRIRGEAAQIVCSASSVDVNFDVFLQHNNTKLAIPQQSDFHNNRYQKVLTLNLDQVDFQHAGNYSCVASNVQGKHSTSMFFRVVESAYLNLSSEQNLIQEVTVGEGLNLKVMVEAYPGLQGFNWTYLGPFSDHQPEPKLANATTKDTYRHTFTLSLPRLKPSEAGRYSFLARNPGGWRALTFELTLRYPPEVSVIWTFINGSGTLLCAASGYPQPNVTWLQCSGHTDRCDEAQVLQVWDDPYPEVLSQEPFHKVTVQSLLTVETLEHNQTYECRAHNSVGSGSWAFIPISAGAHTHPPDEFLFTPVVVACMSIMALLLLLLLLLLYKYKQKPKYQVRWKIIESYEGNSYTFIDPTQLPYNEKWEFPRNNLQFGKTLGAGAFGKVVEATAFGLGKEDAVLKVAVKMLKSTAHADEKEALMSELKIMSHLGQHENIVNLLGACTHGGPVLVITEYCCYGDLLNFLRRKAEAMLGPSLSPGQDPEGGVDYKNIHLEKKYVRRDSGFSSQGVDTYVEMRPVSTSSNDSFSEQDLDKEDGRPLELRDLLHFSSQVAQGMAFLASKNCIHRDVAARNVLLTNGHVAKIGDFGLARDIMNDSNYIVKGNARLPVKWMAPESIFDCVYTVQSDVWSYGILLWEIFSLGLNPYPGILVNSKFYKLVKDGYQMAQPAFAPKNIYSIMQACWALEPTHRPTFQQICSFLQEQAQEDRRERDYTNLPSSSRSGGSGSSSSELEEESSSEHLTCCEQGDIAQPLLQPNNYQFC
The subject of assay [4] is MCF-7. In words: Cancer cell proliferation assay, single agent. As to conditions: Homo sapiens. It counts as cell-based.
[5] abbreviates: MCF7, read-out: IC50 (nM) MCF-7.
The mark [6] stands for this setting: MCF7, MCF-7 cells, treated for 24-168 hours, read-out: IC50 (nM) MCF-7.

Structures can show the parent of a compound that is named as a salt. Where two headings read alike, the source gives them in different places.

In general, IC50 refers to the midpoint of a concentration-inhibition curve.

Chain of CDK4 (P11802 whole entry): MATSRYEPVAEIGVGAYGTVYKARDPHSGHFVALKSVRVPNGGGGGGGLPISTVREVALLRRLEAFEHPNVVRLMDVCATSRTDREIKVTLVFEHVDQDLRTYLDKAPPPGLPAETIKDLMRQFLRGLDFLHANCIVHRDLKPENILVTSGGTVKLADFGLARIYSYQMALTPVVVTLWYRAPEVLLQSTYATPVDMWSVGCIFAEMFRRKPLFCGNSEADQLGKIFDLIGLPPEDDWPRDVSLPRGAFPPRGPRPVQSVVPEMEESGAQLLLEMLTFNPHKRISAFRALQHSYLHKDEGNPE
Chain of CDK4 (P24385 whole entry partner): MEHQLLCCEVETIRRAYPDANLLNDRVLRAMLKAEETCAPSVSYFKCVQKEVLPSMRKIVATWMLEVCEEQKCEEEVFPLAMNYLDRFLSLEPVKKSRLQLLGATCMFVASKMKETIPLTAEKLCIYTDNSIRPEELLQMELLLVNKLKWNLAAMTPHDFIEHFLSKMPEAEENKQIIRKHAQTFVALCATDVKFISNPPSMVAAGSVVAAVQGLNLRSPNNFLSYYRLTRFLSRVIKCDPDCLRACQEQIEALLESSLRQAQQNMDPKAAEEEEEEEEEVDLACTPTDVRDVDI

With `CCN1CCN(Cc2ccc(Nc3ncc(F)c(-c4cc(F)c5c(c4)N(C4CCC(N)CC4)CCO5)n3)nc2)CC1` (stereo not drawn) [Compound 9, 4-(4-(4-aminocyclohexyl)-8-fluoro-3,4-dihydro-2H-benzo[b][, 4]oxazin-6-yl)-N-(5-((4-ethylpiperazin-1-yl)methyl)pyridin-2-yl)-5-fluoropyrimidin-2-amine], the IC50 in assay [1] is greater than 183 nM; in assay [2] it was 173 nM; in assay [3], greater than 5000 nM; in assay [4] (setting [5]), 3260 nM.
As to `CC(C)N1CCOc2c(F)cc(-c3nc(Nc4ccc(C5CCNCC5)c(C(F)(F)F)c4)ncc3F)cc21` [Compound 438, 5-fluoro-4-(8-fluoro-4-isopropyl-3,4-dihydro-2H-benzo[b][1,4]oxazin-6-yl)-N-(4-(piperidin-4-yl)-3-(trifluoromethyl)phenyl)pyrimidin-2-amine], the IC50 came to 41 nM in assay [1], 74 nM in assay [2], 5 nM in assay [3] and 200 nM in assay [4] (setting [6]).
As to `CC(C)N1CCOc2c(F)cc(-c3nc(Nc4ccc(C5CCN(C)CC5)c(F)n4)ncc3F)cc21` [Compound 846, 5-fluoro-4-(8-fluoro-4-isopropyl-3,4-dihydro-2H-benzo[b][1,4]oxazin-6-yl)-N-(6-fluoro-5-(1-methylpiperidin-4-yl)pyridin-2-yl)pyrimidin-2-amine], the IC50 in assay [1] was 3 nM; in assay [2], 4 nM.
On to `COCCN1CCN(Cc2ccc(Nc3ncc(F)c(-c4cc(F)c5c(c4)N(C(C)C)CCO5)n3)nc2)CC1` [Compound 524, 5-fluoro-4-(8-fluoro-4-isopropyl-3,4-dihydro-2H-benzo[b][1,4]oxazin-6-yl)-N-(5-((4-(2-methoxyethyl)piperazin-1-yl)methyl)pyridin-2-yl)pyrimidin-2-amine], for which the half-inhibitory concentration (IC50) is 3.5 nM in assay [1], 7.5 nM in assay [2] and 332 nM in assay [4] (setting [6]).
Consider `CC(C)N1CCN(c2ccc(Nc3ncc(F)c(-c4cc(F)c5c(c4)N(C(C)C)CCO5)n3)cc2F)CC1` [Compound 17, 5-fluoro-N-(3-fluoro-4-(4-isopropylpiperazin-1-yl)phenyl)-4-(8-fluoro-4-isopropyl-3,4-dihydro-2H-benzo[b][1,4]oxazin-6-yl)pyrimidin-2-amine], for which the IC50 in assay [1] amounted to 8 nM; in assay [3] it was 21 nM; in assay [4] (setting [5]) it was 15 nM.
For the compound `CC(C)N1CCOc2c(F)cc(-c3nc(Nc4ccc(N5CCNCC5)c(F)c4)ncc3Cl)cc21` [Compound 30, 5-chloro-N-(3-fluoro-4-(piperazin-1-yl)phenyl)-4-(8-fluoro-4-isopropyl-3,4-dihydro-2H-benzo[b][1,4]oxazin-6-yl)pyrimidin-2-amine], the IC50 in assay [1] is 1 nM; in assay [2], 13 nM; in assay [3] it was 79 nM; in assay [4] (setting [5]) it was 233 nM.
As for `CC(C)N1CCOc2c(F)cc(-c3nc(Nc4ccc5c(c4)CC(N(C)C)CC5)ncc3F)cc21` (stereo not drawn) [Compound 206, N7-(5-fluoro-4-(8-fluoro-4-isopropyl-3,4-dihydro-2H-benzo[b][1,4]oxazin-6-yl)pyrimidin-2-yl)-N2,N2-dimethyl-1,2,3,4-tetrahydronaphthalene-2,7-diamine], the IC50 in assay [1] stood at 56 nM; in assay [2], 100 nM; in assay [3] it was 2.5 nM; in assay [4] (setting [6]) it was 670 nM.
`COc1nc(Nc2ncc(F)c(-c3cc(F)c4c(c3)N(C(C)C)CCO4)n2)ccc1C1CCN(C)CC1` [Compound 844, 5-fluoro-4-(8-fluoro-4-isopropyl-3,4-dihydro-2H-benzo[b][1,4]oxazin-6-yl)-N-(6-methoxy-5-(1-methylpiperidin-4-yl)pyridin-2-yl)pyrimidin-2-amine]: the IC50 was 31 nM in assay [1] and 35 nM in assay [2].
Consider `Fc1cnc(Nc2ccc(N3CCNCC3)cn2)nc1-c1cc(F)c2c(c1)NCCO2` [Compound 3, 5-fluoro-4-(8-fluoro-3,4-dihydro-2H-benzo[b][1,4]oxazin-6-yl)-N-(5 (piperazin-1-yl)pyridin-2-yl)pyrimidin-2-amine], for which the half-maximal inhibitory concentration (IC50) is 3 nM in assay [1], 5.7 nM in assay [2] and greater than 5000 nM in assay [3].
In the case of `CC1CN(C(C)C)c2cc(-c3nc(Nc4ccc(N5CCNCC5)c(F)c4)ncc3F)cc(F)c2O1` (stereo not drawn) [Compound 32, 5-fluoro-N-(3-fluoro-4-(piperazin-1-yl)phenyl)-4-(8-fluoro-4-isopropyl-2-methyl-3,4-dihydro-2H-benzo[b][1,4]oxazin-6-yl)pyrimidin-2-amine], the IC50 stood at 12 nM in assay [1], 21 nM in assay [2], 177 nM in assay [3] and 130 nM in assay [4] (setting [6]).
`CN1CCOc2c(F)cc(-c3nc(Nc4ccc(N5CCNCC5)c(F)c4)ncc3F)cc21` [Compound 34, 5-fluoro-N-(3-fluoro-4-(piperazin-1-yl)phenyl)-4-(8-fluoro-4-methyl-3,4-dihydro-2H-benzo[b][1,4]oxazin-6-yl)pyrimidin-2-amine]: the IC50 in assay [1] is 3 nM; in assay [2], 6 nM; in assay [3], 42 nM; in assay [4] (setting [5]), 50 nM.
With `CC(C)N1CCOc2c(Cl)cc(-c3nc(Nc4ccc(N5CCNCC5)c(F)c4)ncc3Cl)cc21` [Compound 52, 5-chloro-4-(8-chloro-4-isopropyl-3,4-dihydro-2H-benzo[b][1,4]oxazin-6-yl)-N-(3-fluoro-4-(piperazin-1-yl)phenyl)pyrimidin-2-amine], the IC50 in assay [1] is 89 nM; in assay [2] it was 200 nM; in assay [3] it was 14 nM; in assay [4] (setting [6]) it was 695 nM.
Take `CC(C)N1CCOc2c(F)cc(-c3nc(Nc4ccc(C5CCN(C)CC5)c(C5CC5)n4)ncc3F)cc21` [Compound 847, N-(6-cyclopropyl-5-(1-methylpiperidin-4-yl)pyridin-2-yl)-5-fluoro-4-(8-fluoro-4-isopropyl-3,4-dihydro-2H-benzo[b][1,4]oxazin-6-yl)pyrimidin-2-amine]: the IC50 in assay [1] came out at 44 nM; in assay [2], 107 nM.
As for `CCCc1nc(Nc2ncc(F)c(-c3cc(F)c4c(c3)N(C(C)C)CCO4)n2)ccc1C1CCN(C)CC1` [Compound 848, 5-fluoro-4-(8-fluoro-4-isopropyl-3,4-dihydro-2H-benzo[b][1,4]oxazin-6-yl)-N-(5-(1-methylpiperidin-4-yl)-6-propylpyridin-2-yl)pyrimidin-2-amine], the figures for the IC50 in assay [1] and in assay [2] were 44 nM and 110 nM, respectively.
Turning to `CC(C)N1C(=O)COc2c(F)cc(-c3nc(Nc4ccc(N5CCNCC5)cn4)ncc3F)cc21` [Compound 2, 8-fluoro-6-(5-fluoro-2-(5-(piperazin-1-yl)pyridin-2-ylamino)pyrimidin-4-yl)-4-isopropyl-2H-benzo[b][1,4]oxazin-3(4H)-one], the IC50 in assay [1] was 6 nM; in assay [2] it was 6.9 nM; in assay [3], greater than 5000 nM.
As to `CCN1CCOc2c(F)cc(-c3nc(Nc4ccc(N5CCNCC5)c(F)c4)ncc3F)cc21` [Compound 35, 4-(4-ethyl-8-fluoro-3,4-dihydro-2H-benzo[b][1,4]oxazin-6-yl)-5-fluoro-N-(3-fluoro-4-(piperazin-1-yl)phenyl)pyrimidin-2-amine], the IC50 in assay [1] came to 2.5 nM; in assay [2] it was 3 nM; in assay [3], 58 nM; in assay [4] (setting [5]), 20 nM.
The corresponding values for `CC1CN(c2ccc(Nc3ncc(F)c(-c4cc(F)c5c(c4)N(C(C)C)CCO5)n3)nc2)CCN1` (stereo not drawn) [Compound 10, 5-fluoro-4-(8-fluoro-4-isopropyl-3,4-dihydro-2H-benzo[b][1,4]oxazin-6-yl)-N-(5-(3-methylpiperazin-1-yl)pyridin-2-yl)pyrimidin-2-amine] are 4.5 nM, 2.5 nM, 570 nM and 280 nM.
Regarding `CC(C)N1CCOc2c(F)cc(-c3nc(Nc4ccc(C(=O)N5CCC(O)CC5)cn4)ncc3F)cc21` [Compound 460, (6-((5-fluoro-4-(8-fluoro-4-isopropyl-3,4-dihydro-2H-benzo[b][1,4]oxazin-6-yl)pyrimidin-2-yl)amino)pyridin-3-yl)(4-hydroxypiperidin-1-yl)methanone], the IC50 in assay [1] was 13 nM; in assay [2] it was 18 nM; in assay [3], greater than 5000 nM; in assay [4] (setting [6]), 595 nM.
Take `CCCN1CCOc2c(F)cc(-c3nc(Nc4ccc(N5CCNCC5)c(F)c4)ncc3F)cc21` [Compound 36, 5-fluoro-N-(3-fluoro-4-(piperazin-1-yl)phenyl)-4-(8-fluoro-4-propyl-3,4-dihydro-2H-benzo[b][1,4]oxazin-6-yl)pyrimidin-2-amine]: the IC50 came to 4 nM in assay [1], 5 nM in assay [2], 102 nM in assay [3] and 40 nM in assay [4] (setting [5]).
For `CC(C)N1CCOc2c(F)cc(-c3nc(Nc4ccc(C5CCN(C)CC5)c(C#N)n4)ncc3F)cc21` [Compound 845, 6-((5-fluoro-4-(8-fluoro-4-isopropyl-3,4-dihydro-2H-benzo[b][1,4]oxazin-6-yl)pyrimidin-2-yl)amino)-3-(1-methylpiperidin-4-yl)picolinonitrile], the IC50 in assay [1] was determined as 23 nM; in assay [2], 29 nM.
As for `CC(C)N1CCOc2c(F)cc(-c3nc(Nc4ccc5c(c4)CCC(N(C)C)C5)ncc3F)cc21` (stereo not drawn) [Compound 47, N6-(5-fluoro-4-(8-fluoro-4-isopropyl-3,4-dihydro-2H-benzo[b][1,4]oxazin-6-yl)pyrimidin-2-yl)-N2,N2-dimethyl-1,2,3,4-tetrahydronaphthalene-2,6-diamine], the IC50 in assay [1] came to 3.5 nM; in assay [2], 4 nM; in assay [3], 2.5 nM; in assay [4] (setting [6]), 20 nM.
In the case of `COC1CCN(c2ccc(Nc3ncc(F)c(-c4cc(F)c5c(c4)N(C(C)C)CCO5)n3)nc2)CC1` [Compound 843, 5-fluoro-4-(8-fluoro-4-isopropyl-3,4-dihydro-2H-benzo[b][1,4]oxazin-6-yl)-N-(5-(4-methoxypiperidin-1-yl)pyridin-2-yl)pyrimidin-2-amine hydrochloride], the half-maximal inhibitory concentration (IC50) in assay [1] is 65 nM; in assay [2], 24 nM.

The record behind these values is patent publication US11174252B2, “Heterocyclic compounds as kinase inhibitors” (priority 2018, dated 2021).
